Source: the NIST ThermoML archive (doi:10.1021/je020153x)
Numbers after ± are expanded uncertainties.

Experiment: mn = molality of the nth substance listed, in mol/kg
Details: 101.3 kPa, Liquid; for viscosity: Capillary tube (Ostwald / Ubbelohde) method; for mass density: Vibrating tube method

O=C[C@H](O)[C@@H](O)[C@H](O)[C@H](O)CO [D-glucose] + O
Details	mass density, 293.15 K [kg/m3]	mass density, 303.15 K [kg/m3]	mass density, 313.15 K [kg/m3]	viscosity, 293.15 K [mPa·s]	viscosity, 303.15 K [mPa·s]	viscosity, 313.15 K [mPa·s]
m1 = 0.5	1030.7 ± 0.2	1027.7 ± 0.2	1024 ± 0.2	1.256 ± 0.011	0.988 ± 0.009	0.801 ± 0.007
m1 = 1	1059.7 ± 0.2	1056.4 ± 0.2	1052.4 ± 0.2	1.587 ± 0.014	1.231 ± 0.011	0.985 ± 0.009
m1 = 1.5	1085.4 ± 0.3	1081.8 ± 0.3	1077.6 ± 0.2	1.993 ± 0.018	1.523 ± 0.014	1.205 ± 0.011
m1 = 2	1108.8 ± 0.3	1105 ± 0.3	1100.6 ± 0.3	2.512 ± 0.023	1.89 ± 0.018	1.475 ± 0.014
m1 = 2.5	1129.8 ± 0.3	1125.7 ± 0.3	1121.2 ± 0.3	3.159 ± 0.029	2.341 ± 0.022	1.804 ± 0.017
m1 = 3	1148.8 ± 0.3	1144.6 ± 0.3	1139.9 ± 0.3	3.947 ± 0.037	2.873 ± 0.028	2.182 ± 0.021
m1 = 3.5	1166.3 ± 0.3	1161.9 ± 0.3	1157.1 ± 0.3	4.96 ± 0.046	3.553 ± 0.035	2.66 ± 0.026
m1 = 4	1182.2 ± 0.3	1177.7 ± 0.3	1172.7 ± 0.3	6.131 ± 0.056	4.309 ± 0.043	3.175 ± 0.033

[Cl-].[Na+] [sodium chloride] + O
Details	mass density, 293.15 K [kg/m3]	mass density, 303.15 K [kg/m3]	mass density, 313.15 K [kg/m3]	viscosity, 293.15 K [mPa·s]	viscosity, 303.15 K [mPa·s]	viscosity, 313.15 K [mPa·s]
m1 = 0.5	1018.6 ± 0.2	1015.7 ± 0.2	1011.9 ± 0.2	1.041 ± 0.009	0.835 ± 0.008	0.688 ± 0.007
m1 = 1	1037.8 ± 0.2	1034.4 ± 0.2	1030.4 ± 0.2	1.087 ± 0.01	0.873 ± 0.008	0.722 ± 0.007
m1 = 1.5	1056.3 ± 0.2	1052.6 ± 0.2	1048.4 ± 0.2	1.138 ± 0.01	0.918 ± 0.008	0.76 ± 0.007
m1 = 2	1074.1 ± 0.2	1070.1 ± 0.2	1065.7 ± 0.2	1.196 ± 0.01	0.966 ± 0.009	0.802 ± 0.007
m1 = 2.5	1091.4 ± 0.2	1087.2 ± 0.2	1082.5 ± 0.2	1.264 ± 0.011	1.021 ± 0.009	0.848 ± 0.008
m1 = 3	1107.8 ± 0.2	1103.4 ± 0.2	1098.6 ± 0.2	1.333 ± 0.012	1.077 ± 0.01	0.895 ± 0.008
m1 = 3.5	1123.9 ± 0.3	1119.2 ± 0.3	1114.3 ± 0.3	1.411 ± 0.012	1.14 ± 0.01	0.945 ± 0.009
m1 = 4	1139.2 ± 0.3	1134.4 ± 0.3	1129.3 ± 0.3	1.499 ± 0.013	1.208 ± 0.011	1 ± 0.009

O [water] + O=C[C@H](O)[C@@H](O)[C@H](O)[C@H](O)CO
m2 = 0
Details	viscosity [mPa·s]
293.15 K	1.002 ± 0.009
303.15 K	0.797 ± 0.007
313.15 K	0.653 ± 0.006

O [water] + [Cl-].[Na+]
m2 = 0
Details	viscosity [mPa·s]
293.15 K	1.002 ± 0.009
303.15 K	0.797 ± 0.007
313.15 K	0.653 ± 0.006
